{"source": "patent US8758781B2", "about": "“Tissue scaffolds derived from forestomach extracellular matrix” (Mesynthes Ltd., priority 2008, dated 2014)", "key": {"[1]": {"tested_on": "PC12 cells", "test": "PC12 cell differentiation by growth factor released from laminates", "type": "cell-based", "settings": "growth factor solution control (50 ng/disc); 48 hours", "protocol": "Specifically, a collagen gel was prepared as described in Example 3. Once formed the gel was spiked with either human recombinant FGF2 or NGF. Sterile FM scaffold sheets were cut to 8 mm discs, and growth factor spiked collagen gel (10 μL) was applied to one surface. A second FM scaffold disc was applied to the collagen layer to create a laminate sandwich (i.e., FM scaffold/bioactive collagen polymer/FM scaffold). The bioactive FM scaffold laminates were dehydrated at 25° C. for 2 hours to yield a bonded laminate. The FM laminates were produced with FGF2 or NGF at either 0, 250 or 500 ng/disc. The bioactive FM scaffolds were incubated at 37° C. for 24 hours in DMEM (1 mL) to extract the bound growth factor prior to application to a cell monolayer. PC12 cells were seeded onto 24-well plates at 20 k cells/well in DMEM (1 mL) and incubated for 24 hours at 37° C. Media was removed from the cells and replaced with DMEM (1 mL) that had been incubated with the bioactive FM scaffold laminates. Positive control cells were treated with a solution of either FGF2 or NGF at 50 ng/mL final concentration. Cells were incubated for 48 hours. […] Total cells were counted per frame, as well as the total number of cell processes per frame. […] Growth factor stimulated cell differentiation was expressed as the number of cell processes per cell per frame. Results are expressed as Table 19. […]"}, "[2]": {"tested_on": "BEV: Bovine enterovirus (Picornaviridae)", "test": "Viral inactivation in scaled-down manufacturing process", "settings": "0.3% PAA/5% Ethanol in PBS", "protocol": "(§1) A study was undertaken to examine viral inactivation during the STOF processes and PAA treatment using three model viruses.\n(§2) The level of viral inactivation was tested using a scaled-down manufacturing process. This involved spiking high-titre viral stocks of each of the three model viruses into samples representing two different stages of the manufacturing process, and subjecting these spiked samples to a treatment analogous to the corresponding manufacturing step. The level of virus inactivation during each treatment was determined by comparing the viral titres recovered from the spiked samples after each treatment, with viral recovery from untreated samples.\n(§3) The model viruses were chosen to include viruses with different physio-chemical characteristics, such as the presence or absence of envelope, type of nucleic acid genome (DNA or RNA) and survival in the environment/resistance to disinfection (Table 22). The amount of infectious virus present in samples was determined by end-point titration and viral titres were expressed as tissue culture infective dose, 50% (TCID50)."}, "[3]": {"tested_on": "FHV-1: Felid herpesvirus type 1 (Herpesviridae)", "test": "Viral inactivation in scaled-down manufacturing process", "settings": "0.3% PAA/5% Ethanol in PBS", "protocol": "as §1, §2, §3"}, "[4]": {"tested_on": "PI-3: Parainfluenza virus type 3 (Paramyxoviridae)", "settings": "0.3% PAA/5% Ethanol in PBS", "protocol": "as §1, §2, §3"}, "[5]": {"tested_on": "S. aureus", "test": "Anti-microbial zone of inhibition on Mueller-Hinton agar", "type": "cell-based", "parameters": "key: ‘+++’ indicates a bioactivity comparable to the positive control; ‘−’ indicates no bioactivity", "settings": "positive control, solution on sterile filter paper disc", "protocol": "Plates of Mueller-Hinton agar were prepared and streaked with 100 μL of 10^8 S. aureus and left to dry for 5-10 minutes. Using sterile technique, discs were transferred to the plates and the plates incubated for 24 hours at 35° C. After 24 hours, plates were digitally imaged and the anti-microbial zone of inhibition around each of the discs was scored relative to the positive control."}}, "data": [{"compound": "rhNGF: NGF solution, positive control", "values": [{"measurement": "Relative cell response (cell processes per cell per frame)", "setting": "[1]", "value": "0.73 ± 0.01"}]}, {"compound": "CC(=O)OO", "note": "[PAA, peracetic acid]", "values": [{"measurement": "PAA Inactivation", "setting": "[2]", "value": 7.3, "unit": "log TCID50"}, {"measurement": "PAA Inactivation", "setting": "[3]", "value": "≧2.6 log TCID50"}, {"measurement": "PAA Inactivation", "setting": "[4]", "value": "≧2.3 log TCID50"}]}, {"compound": "poly-L-lysine", "values": [{"measurement": "Antibacterial score", "setting": "[5]; 5 μg/disc", "value": "+++"}]}, {"compound": "C[C@H]1c2cccc(O)c2C(=O)C2=C(O)[C@]3(O)C(=O)C(C(N)=O)=C(O)[C@@H](N(C)C)[C@@H]3[C@@H](O)[C@@H]21", "note": "[Doxycycline]", "values": [{"measurement": "Antibacterial score", "setting": "[5]; 30 μg/disc", "value": "+++"}]}, {"compound": "rhFGF2: human recombinant FGF2 solution, positive control", "values": [{"measurement": "Relative cell response (cell processes per cell per frame)", "setting": "[1]", "value": "0.72 ± 0.02"}]}]}
